Key:
Format in all cases: cell-based, human
[1] = tested on: Notch target genes in CD34+ HSPCs (CD38lo/− and CD38+ fractions); test: qRT-PCR of Notch target and pro-myeloid genes after 5 days of culture
Text: Umbilical cord blood (UCB) was collected from consenting donors at Mount Sinai Hospital, Toronto, Ontario, in accordance with institutional research ethics board policies. Mononuclear cells were fractioned via centrifugation using Lympholyte cell separation media (Cedarlane) and red blood cells were lysed using ammonium-chloride-potassium (ACK) lysing buffer prepared in-house. Mononuclear cells were enriched for >90% CD34+ cells using EasySep™ Human CD34+ Positive Selection Kit (Stemcell Technologies) according to the manufacturer's instructions. For certain experiments, enriched CD34+ cells were stained with CD34-APC and CD38-PE antibodies and sorted into CD34+CD38lo/− and CD34+CD38+ fractions using FACS Aria flow cytometer ([…]).
Cells were lysed and RNA isolated using the PureLink™ RNA Micro Kit (Invitrogen) according to the manufacturer's protocol. cDNA was reverse-transcribed from RNA using SuperScript™ III Reverse Transcriptase (Invitrogen) according to the manufacturer's protocol. cDNA was amplified with primers and FastStart SYBR Green Mastermix (Roche) using QuantStudio™ 6 Flex (Applied Biosystems). Relative expression of individual genes was calculated by the delta cycle threshold (ΔCt) method and normalization using β-actin to control for differences in input cDNA.
TNFα activates the NF-KB pathway, which may regulate Notch target genes or regulate Notch itself (FIG. 3a). To investigate if and how TNFα interacts with Notch, CD34+ HSPCs were first sorted into CD38lo/− and CD38+ fractions, and seeded separately on DL4+VCAM-1 with and without TNFα. Gene expression was measured using qPCR after 5 days of culture (FIG. 3b).

CD34+ HSPCs [2] = test: γ-secretase inhibitor (GSI) titration, 14-day culture on DL4+VCAM-1; details: increasing concentrations of GSI; 14 days
Procedure: (§1) For experiments 7 days or longer, HSPCs were seeded at 63-125 cells/mm^2 (equivalent to 2000-4000 cells/well of a 96-well plate) on DL4+VCAM-1-coated surfaces. Experiments shorter than 7 days (CFSE and qPCR) were seeded at 470-780 cells/mm^2 (equivalent to 15,000-25,000 cells/well of a 96-well plate) to provide enough cells for analysis. Cells were cultured in 100 μl/well (32 μl/well for 384-well plate) of Iscove's Modified Eagle Medium (IMDM) supplemented with 20% bovine serum albumin, insulin, and transferrin (BIT 9500) serum substitute (Stemcell Technologies), 1 μg/ml low-density lipoprotein (LDL; Stemcell Technologies), 60 μM ascorbic acid (Sigma), 24 μM 2-mercaptoethanol (Sigma), and 1% penicillin-streptomycin (P/S; Invitrogen). The cytokines used in control condition were SCF, FLT3L, TPO, and IL-7 (also known as the “4F cytokines”, all of which were obtained from R&D Systems), each at a concentration of 20 ng/ml or 100 ng/ml as indicated in the text. All other cytokines were purchased from R&D Systems and used in the combinations and concentrations indicated in the text. For certain experiments, the γ-secretase inhibitor (2S)-N-[(3,5-Difluorophenyl)acetyl]-L-alanyl-2-phenyl] glycine 1,1-dimethylethyl ester (DAPT) or dimethyl sulfoxide (DMSO) was added to media at the concentrations indicated in the text. […]

CD34+ HSPCs [3] = test: Timed addition of TNFα (day 0, 1, 2 or 3), 7-day culture on DL4+VCAM-1; details: late addition of TNFα; day 7
Procedure: as §1

[4] = both CD38lo/− and CD38+ fractions, normalized to β-actin

TNFα
expression of any other Notch target genes or NOTCH1 itself [1]: No significant differences | SPI1 expression ([1]; CD38lo/− but not CD38+ HSPCs): downregulated SPI1 slightly | GATA3 expression [1, 4]: upregulated | TCF7 expression [1, 4]: upregulated | BCL11b expression ([1]; only CD38lo/− HSPCs): upregulated | CEBPA expression ([1]; only the CD38+ fraction): significantly downregulated | CD7+CD5+ proT cell generation under Notch inhibition (CD34+ HSPCs [2]): capable of maintaining CD7+CD5+ proT cell generation with a higher concentration of GSI than the control condition | CD7+ lymphoid cells (CD34+ HSPCs [3]): decrease in CD7+ lymphoid cells | CD14/33+ myeloid lineage cells (CD34+ HSPCs [3]): increase in CD14/33+ myeloid lineage cells

From patent publication US20220403326A1, “MEDIA FORMULATIONS AND METHODS FOR PRODUCING PROGENITOR T CELLS” (priority 2019, published 2022)
